Molecules are shown by their SMILES. A value given as a limit tells only on which side of the number the result lay.

IDH1 R132H, sequence (O75874 whole entry R132H): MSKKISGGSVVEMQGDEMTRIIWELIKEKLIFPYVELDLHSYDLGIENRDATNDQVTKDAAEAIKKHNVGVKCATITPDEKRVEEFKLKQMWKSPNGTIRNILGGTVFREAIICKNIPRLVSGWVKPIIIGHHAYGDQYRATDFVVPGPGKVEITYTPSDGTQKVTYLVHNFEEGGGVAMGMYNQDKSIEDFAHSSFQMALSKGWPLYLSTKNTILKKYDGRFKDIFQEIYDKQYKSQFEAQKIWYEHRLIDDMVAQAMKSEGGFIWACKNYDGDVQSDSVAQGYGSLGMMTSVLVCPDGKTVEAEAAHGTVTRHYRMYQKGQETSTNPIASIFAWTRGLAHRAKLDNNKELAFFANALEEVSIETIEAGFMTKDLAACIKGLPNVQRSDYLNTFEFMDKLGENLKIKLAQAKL

One experiment addresses IDH1 R132H (Homo sapiens, UniProt O75874, R132H). Nature of the experiment: Assay for IDH1 R132H inhibitors (NADPH/aKG, resazurin detection). The format is biochemical. The conditions noted are these: Table 3; enzyme assay, 50 minutes at room temperature; read-out: IC50 (IDH1 R132H Inhibition). The method in brief: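 Read-out is resorufin fluorescence (Ex544/Em590) 5 min after adding a 30 μM resazurin detection mix. Before that, mutant enzyme (0.2 μg/ml in its mix) ran 50 min at room temperature with compound, 8 uM NADPH and 2 mM aKG (mix levels) in Tris pH 7.5 with NaCl, MgCl2, BSA.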
As a reminder, the IC50 is the concentration that gives 50% inhibition. Turning to `CC(C)c1cc(-c2ccccc2)c(C#N)c(N2CCN(C(=O)c3ccco3)C(C)C2)n1` (stereo not shown) [Compound 107, 2-(4-(furan-2-carbonyl)-3-methylpiperazin-1-yl)-6-isopropyl-4-phenylnicotinonitrile], the IC50 fell in the range of 1000 to 5000 nM.

On to `COCCC(=O)N1CCN(c2nc(C(C)C)c(-c3ccccc3OC)cc2C#N)C[C@H]1C` [Compound 183, (R)-6-isopropyl-5-(2-methoxyphenyl)-2-(4-(3-methoxypropanoyl)-3-methylpiperazin-1-yl)nicotinonitrile], for which the IC50 was 1000 to 5000 nM. The same measure, in the same setting: next, `COc1ccccc1-c1cc(C(C)C)nc(N2CCN(C(=O)Cc3ccccc3)CC2)c1C#N` [Compound 146, 6-isopropyl-4-(2-methoxyphenyl)-2-(4-(2-phenylacetyl)piperazin-1-yl)nicotinonitrile]: 5000 to 15000 nM; `CC(C)c1cc(-c2ccccc2)c(C#N)c(N2CCN(C(=O)c3ccco3)C(c3ccccc3)C2)n1` (stereo not shown) [Compound 155, 2-(4-(furan-2-carbonyl)-3-phenylpiperazin-1-yl)-6-isopropyl-4-phenylnicotinonitrile]: 5000 to 15000 nM. On the same count and under the same terms, next, `CC(C)c1nc(N2CCN(C(=O)c3ccoc3)[C@H](C)C2)c(C#N)cc1-c1ccccc1` [Compound 150, (R)-2-(4-(furan-3-carbonyl)-3-methylpiperazin-1-yl)-6-isopropyl-5-phenylnicotinonitrile]: 1000 to 5000 nM.

Regarding `COCCC(=O)N1CCN(c2nc(C(C)C)c(-c3ccc4c(c3)OCO4)cc2C#N)C[C@H]1C` [Compound 224, (R)-5-(benzo[d][1,3]dioxol-5-yl)-6-isopropyl-2-(4-(3-methoxypropanoyl)-3-methylpiperazin-1-yl)nicotinonitrile], the IC50 is at most 1000 nM. For `CC[C@@H]1CN(c2nc(C(C)C)c(-c3ccccc3)cc2C#N)CCN1C(=O)c1ccoc1` [Compound 171, (R)-2-(3-ethyl-4-(furan-3-carbonyl)piperazin-1-yl)-6-isopropyl-5-phenylnicotinonitrile], the concentration for half-maximal inhibition (IC50) is 1000 to 5000 nM. As for `COCCC(=O)N1CCN(c2nc(C3CC3)c(-c3ccc(F)c(Cl)c3)cc2C#N)C[C@H]1C` [Compound 248, (R)-5-(3-chloro-4-fluorophenyl)-6-cyclopropyl-2-(4-(3-methoxypropanoyl)-3-methylpiperazin-1-yl)nicotinonitrile], the IC50 was at most 1000 nM. For `CC[C@@H]1CN(c2nc(C(C)C)c(-c3ccccc3)cc2C#N)CCN1C(=O)Cc1cccs1` [Compound 174, (R)-2-(3-ethyl-4-(2-(thiophen-2-yl)acetyl)piperazin-1-yl)-6-isopropyl-5-phenylnicotinonitrile], the IC50 was 1000 to 5000 nM.

For `CC(C)c1ccc(-c2cc(C#N)c(N3CCN(C(=O)c4ccoc4)[C@H](C)C3)nc2C(C)C)cc1` [Compound 206, (R)-2-(4-(furan-3-carbonyl)-3-methylpiperazin-1-yl)-6-isopropyl-5-(4-isopropylphenyl)nicotinonitrile], the IC50 was in the range of 1000 to 5000 nM.

`CC(C)c1cc(-c2ccccc2)nc(N2CCN(C(=O)c3ccco3)CC2)c1C#N` [Compound 103, 2-(4-(furan-2-carbonyl)piperazin-1-yl)-4-isopropyl-6-phenylnicotinonitrile]: the half-maximal inhibitory concentration (IC50) fell in the range of 5000 to 15000 nM. Still for that read-out and setting: next, `CC1CN(c2nc(C3CCCCC3)cc(-c3ccccc3)c2C#N)CCN1C(=O)c1ccoc1` (stereo not shown) [Compound 138, 6-cyclohexyl-2-(4-(furan-3-carbonyl)-3-methylpiperazin-1-yl)-4-phenylnicotinonitrile]: 1000 to 5000 nM.

Take `COCCC(=O)N1CCN(c2nc(C3CC3)c(-c3cncc4ccccc34)cc2C#N)C[C@H]1C` [Compound 242, (R)-6-cyclopropyl-5-(isoquinolin-4-yl)-2-(4-(3-methoxypropanoyl)-3-methylpiperazin-1-yl)nicotinonitrile]: the IC50 is at most 1000 nM. Consider `CC(C)c1nc(N2CCN(C(=O)Cc3ccccc3)C(C)C2)c(C#N)cc1-c1ccccc1` (stereo in doubt) [Compound 145, (R)-6-isopropyl-2-(3-methyl-4-(2-phenylacetyl)piperazin-1-yl)-5-phenylnicotinonitrile], for which the half-maximal inhibitory concentration (IC50) was in the range of 1000 to 5000 nM. Consider `CC(C)c1nc(N2CCN(C(=O)c3ccoc3)C(c3ccccc3)C2)c(C#N)cc1-c1ccccc1` (stereo not shown) [Compound 153, 2-(4-(furan-3-carbonyl)-3-phenylpiperazin-1-yl)-6-isopropyl-5-phenylnicotinonitrile], for which the half-maximal inhibitory concentration (IC50) fell in the range of 5000 to 15000 nM.

The same experiment, now with this note: enzyme assay of Example 12; read-out: IDH1R132H IC50.
With `C[C@@H]1CN(c2nc(C3CC3)c(Nc3ccnc(Cl)c3)cc2C#N)CCN1C(=O)CCO` [Compound 661, (R)-5-((2-chloropyridin-4-yl)amino)-6-cyclopropyl-2-(4-(3-hydroxypropanoyl)-3-methylpiperazin-1-yl)nicotinonitrile], the 50% inhibitory concentration (IC50) is under 500 nM. Still for that read-out and setting: with `COCCC(=O)N1CCN(c2nc(C3CC3)c(-c3cccs3)cc2C#N)C[C@H]1C` [Compound 273, (R)-6-cyclopropyl-2-(4-(3-methoxypropanoyl)-3-methylpiperazin-1-yl)-5-(thiophen-2-yl)nicotinonitrile] the figure was 500 to 1000 nM; with `COCCC(=O)N1CCN(c2nc(C3CC3)c(OC(C)c3ccc(Cl)cc3)cc2C#N)C[C@H]1C` (stereo partly drawn) [Compound 311, 5-(1-(4-chlorophenyl)ethoxy)-6-cyclopropyl-2-((R)-4-(3-methoxypropanoyl)-3-methylpiperazin-1-yl)nicotinonitrile], 500 to 1000 nM. On the same count and under the same terms, next, `CCc1ccccc1-c1cc(C#N)c(N2CCN(C(=O)CCOC)[C@H](C)C2)nc1C1CC1` [Compound 334, (R)-6-cyclopropyl-5-(2-ethyl-phenyl)-2-[4-(3-methoxy-propionyl)-3-methyl-piperazin-1-yl]-nicotinonitrile]: 500 to 1000 nM; `COCCC(=O)N1CCN(c2nc(C3CC3)c(-c3ccccc3CCOC)cc2C#N)C[C@H]1C` [Compound 338, (R)-6-cyclopropyl-5-[2-(2-methoxy-ethyl)-phenyl]-2-[4-(3-methoxy-propionyl)-3-methyl-piperazin-1-yl]-nicotinonitrile]: under 500 nM; `COCCC(=O)N1CCN(c2nc(C3CC3)c(-c3ccccc3COC)c(C)c2C#N)C[C@H]1C` [Compound 348, (R)-6-cyclopropyl-5-(2-methoxymethyl-phenyl)-2-[4-(3-methoxy-propionyl)-3-methyl-piperazin-1-yl]-4-methyl-nicotinonitrile]: under 500 nM. On the same count and under the same terms, next, `CSCn1cc(-c2cc(C#N)c(N3CCN(C(=O)C4CC4)[C@H](C4CC4)C3)nc2C2CC2)cn1` [Compound 510, (R)-2-(4-(cyclopropanecarbonyl)-3-cyclopropylpiperazin-1-yl)-6-cyclopropyl-5-(1-((methylthio)methyl)-1H-pyrazol-4-yl)nicotinonitrile]: 500 to 1000 nM; `COCCC(=O)N1CCN(c2nc(C3CC3)c(-c3cccc(NS(=O)(=O)CCl)c3)cc2C#N)C[C@H]1C` [Compound 404, (R)-1-chloro-N-(3-(5-cyano-2-cyclopropyl-6-(4-(3-methoxypropanoyl)-3-methylpiperazin-1-yl)pyridin-3-yl)phenyl)methanesulfonamide]: 500 to 1000 nM; `CCO[C@H]1C[C@H]1C(=O)N1CCN(c2nc(C3CC3)c(-c3ccc(F)cc3)cc2C#N)C[C@H]1C1CC1` [Compound 564, 6-cyclopropyl-2-((R)-3-cyclopropyl-4-((1R,2S)-2-ethoxycyclopropanecarbonyl)piperazin-1-yl)-5-(4-fluorophenyl)nicotinonitrile]: under 500 nM.

As for `N#Cc1cncc(-c2cc(C#N)c(N3CCN(C(=O)CC(F)(F)F)[C@H](C4CC4)C3)nc2C2CC2)c1` [Compound 525, (R)-2-cyclopropyl-6-(3-cyclopropyl-4-(3,3,3-trifluoropropanoyl)piperazin-1-yl)-[3,3′-bipyridine]-5,5′-dicarbonitrile], the IC50 is under 500 nM. As to `COCCC(=O)N1CCN(c2nc(C3CC3)c(-c3ccc(F)cc3)cc2-c2nnco2)C[C@H]1C` [Compound 392, (R)-1-(4-(6-cyclopropyl-5-(4-fluorophenyl)-3-(1,3,4-oxadiazol-2-yl)pyridin-2-yl)-2-methylpiperazin-1-yl)-3-methoxypropan-1-one], the IC50 was under 500 nM. On the same count and under the same terms, with `Cc1c(C#N)c(N2CCN(C(=O)CC(F)(F)F)[C@H](C3CC3)C2)nc(C2CC2)c1-c1ccc(F)cc1` [Compound 300, (R)-6-cyclopropyl-2-(3-cyclopropyl-4-(3,3,3-trifluoropropanoyl)piperazin-1-yl)-5-(4-fluorophenyl)-4-methylnicotinonitrile] the figure was 500 to 1000 nM. On to `CC1CN(c2nc(C3CC3)c(-c3cccc4cnccc34)cc2C#N)CC(F)CN1C(=O)C1CC1` (stereo not shown) [Compound 484, 2-(4-(cyclopropanecarbonyl)-6-fluoro-3-methyl-1,4-diazepan-1-yl)-6-cyclopropyl-5-(isoquinolin-5-yl)nicotinonitrile], for which the IC50 was in the range of 500 to 1000 nM. `COCCC(=O)N1CCN(c2nc(C3CC3)c(-c3ccccc3CO)c(C)c2C#N)C[C@H]1C` [Compound 372, (R)-6-cyclopropyl-5-(2-hydroxymethyl-phenyl)-2-[4-(3-methoxy-propionyl)-3-methyl-piperazin-1-yl]-4-methyl-nicotinonitrile]: the IC50 is under 500 nM.

Take `N#Cc1cc(-c2ccc(C(F)(F)F)nc2)c(C2CC2)nc1N1CCN(C(=O)C2CC2)[C@H](C2CC2)C1` [Compound 567, (R)-6-(4-(cyclopropanecarbonyl)-3-cyclopropylpiperazin-1-yl)-2-cyclopropyl-6′-(trifluoromethyl)-[3,3′-bipyridine]-5-carbonitrile]: the 50% inhibitory concentration (IC50) lay in the range of 500 to 1000 nM. Still for that read-out and setting: next, `COCCC(=O)N1CCN(c2nc(C3CC3)c(-c3cnn(Cc4ccccc4)c3)c(C)c2C#N)C[C@H]1C` [Compound 358, (R)-5-(1-benzyl-1H-pyrazol-4-yl)-6-cyclopropyl-2-[4-(3-methoxy-propionyl)-3-methyl-piperazin-1-yl]-4-methyl-nicotinonitrile]: under 500 nM.

These data come from US9856279B2 (AGIOS PHARMACEUTICALS, INC, priority 2011, dated 2018).
